Values of other authors as cited in patent publication EP3320903B1 (HK inno.N Corporation, priority 2015, dated 2017).

CC(C)c1nc(N(C)S(C)(=O)=O)nc(-c2ccc(F)cc2)c1/C=C/[C@@H](O)C[C@@H](O)CC(=O)O [rosuvastatin, (3R,5S,6E)-7-[4-(4-fluorophenyl)-2-(N-methylmethanesulfonamido)-6-(propan-2-yl)pyrimidin-5-yl]-3,5-dihydroxyhepten-6-oic acid]
pKa: ~4.6
